Assay results: patent publication US4129721A, “A-40104 antibiotics and process for production thereof” (priority 1977, dated 1978)
≈ marks a conversion by molar mass, not a printed value.

What was measured:
Mycoplasma synoviae = assay: in vitro broth-dilution studies, mycoplasma; format: cell-based
Excerpt: (§1) The minimal inhibitory concentrations (MIC's) of A-40104 factor A; 19,20-dihydro-A-40104 factor A; and the tetraacetyl derivative of A-40104A against various mycoplasma species, as determined by in vitro broth-dilution studies, are summarized in Table IX.

Mycoplasma hyopneumoniae = assay: in vitro broth-dilution studies, mycoplasma; format: cell-based
Excerpt: as §1

Mycoplasma hyorhinis = assay: in vitro broth-dilution studies, mycoplasma; format: cell-based
Excerpt: as §1

Mycoplasma gallisepticum = assay: in vitro broth-dilution studies, mycoplasma; format: cell-based
Excerpt: as §1

[1] = acute toxicity, intraperitoneal injection in mice; conditions: mouse, in vivo, ip
Excerpt: A special advantage of the A-40104 antibiotics is that they are relatively nontoxic.

[2] = test system: Hemophilus influenzae 251; assay: gradient-plate agar-dilution method; format: cell-based; conditions: Haemophilus influenzae
Peptococcus prevoti = assay: standard agar-dilution test, anaerobic bacteria; format: cell-based; conditions: read after 2 hours incubation
Streptococcus sp. 9960 = assay: standard disc-plate assay; format: cell-based; conditions: Group D, disc diameter 6.35 mm, read-out: Zone Diameters
Experimental: (§2) In one important aspect of this activity, the A-40104 antibiotics inhibit the growth of organisms which are resistant to other antibiotics. In Table IV the standard disc-plate-assay activity of A-40104 factors A and B against representative organisms is summarized. Activity is measured as the diameter (in mm) of the observed zone of inhibition; the diameter of disc used in each case was 6.35 mm.

[3] = test system: Staphylococcus aureus 3055; assay: standard disc-plate assay; format: cell-based; conditions: Penicillin-G susceptible, disc diameter 6.35 mm, read-out: Zone Diameters
Experimental: as §2

[4] = test system: Staphylococcus aureus 3074; assay: standard disc-plate assay; format: cell-based; conditions: Penicillin-G resistant, disc diameter 6.35 mm, read-out: Zone Diameters
Experimental: as §2

[5] = test system: Staphylococcus aureus 3130; assay: standard disc-plate assay; format: cell-based; conditions: Methicillin resistant, disc diameter 6.35 mm, read-out: Zone Diameters
Experimental: as §2

Diplococcus pneumoniae = assay: standard disc-plate assay; format: cell-based; conditions: Streptococcus pneumoniae, disc diameter 6.35 mm, read-out: Zone Diameters
Experimental: as §2

Streptococcus pyogenes [6] = assay: standard disc-plate assay; format: cell-based; conditions: Group A, disc diameter 6.35 mm, read-out: Zone Diameters
Experimental: as §2

[7] = test system: Streptococcus sp. 9960 (Group D); assay: gradient-plate agar-dilution method; format: cell-based
[8] = test system: Staphylococcus aureus 3055; assay: experimental bacterial infection in mice; format: in vivo; conditions: Staphylococcus aureus, 3055, sc, sc, two doses, challenge 1,260 × LD50 (ip), read-out: ED50 × 2
[9] = test system: Pasteurella multocida (bovine); assay: standard in vitro tests, Pasteurella; format: cell-based
Excerpt: (§3) Another veterinary aspect of this invention is the activity of the A-40104 antibiotics against Pasteurella species. P. multocida, for example, is a causative agent of respiratory infection in cattle, poultry, and swine. P. hemolytica is a major cause of respiratory disease in cattle. The activity of A-40104 factor A and its dihydro derivative against Pasteurella, as determined by standard in vitro tests, is summarized in Table X.

Pasteurella hemolytica = assay: standard in vitro tests, Pasteurella; format: cell-based
Excerpt: as §3

[10] = test system: Bacteroides melaninogenicus 1856/28; assay: standard agar-dilution test, anaerobic bacteria; format: cell-based; conditions: Prevotella intermedia, read after 2 hours incubation
Excerpt: (§4) Table VIII summarizes the activity of A-40104 factor A, as determined by the standard agar-dilution test.
(§5) *MIC determined by the agar-dilution method. Endpoints were read after 2

[11] = test system: Peptostreptococcus anaerobius; assay: standard agar-dilution test, anaerobic bacteria; format: cell-based; conditions: 2 h
Excerpt: as §4, §5

Streptococcus pyogenes [12] = assay: gradient-plate agar-dilution method; format: cell-based
[13] = test system: Streptococcus pneumoniae Park I; assay: experimental bacterial infection in mice; format: in vivo; conditions: sc, read-out: ED50 × 2
[14] = test system: Hemophilus influenzae Laiv.; assay: gradient-plate agar-dilution method; format: cell-based; conditions: Haemophilus influenzae
Fusobacterium symbiosum = assay: standard agar-dilution test, anaerobic bacteria; format: cell-based; conditions: 2 h
[15] = test system: Peptostreptococcus intermedius; assay: standard agar-dilution test, anaerobic bacteria; format: cell-based; conditions: 2 h
[16] = test system: Bacteroides fragilis 1877; assay: standard agar-dilution test, anaerobic bacteria; format: cell-based; conditions: Bacteroides fragilis, 1877, 2 h
[17] = test system: Streptococcus pyogenes C203; assay: experimental bacterial infection in mice; format: in vivo; conditions: sc, two doses, challenge 195 × LD50 (ip), read-out: ED50 × 2
Bacteroides corrodens = assay: standard agar-dilution test, anaerobic bacteria; format: cell-based; conditions: Eikenella corrodens, 2 h
[18] = test system: Peptococcus asaccharolyticus; assay: standard agar-dilution test, anaerobic bacteria; format: cell-based; conditions: Peptoniphilus asaccharolyticus, 2 h
powdery mildew = powdery mildew control on bean and barley plants; format: in vivo
Excerpt: The A-40104 antibiotics are also active against plant pathogens. […] The systemic activity of these antibiotics is especially advantageous in the control of plant pathogens or Spiroplasmas.

electrometric titration = format: physicochemical; conditions: 66 percent aqueous dimethylformamide
[19] = test system: experimental bacterial infections; assay: experimental bacterial infections in mice (general statement); format: in vivo
Experimental: When two doses of these compounds were administered to mice in illustrative infections, the activity observed was measured as an ED50 value [effective dose in mg./kg. to protect 50 percent of the test animals; see Warren Wick, et al., J. Bacteriol. 81, 233-235 (1961)].

[20] = test system: Hemophilus influenzae Dick.; assay: gradient-plate agar-dilution method; format: cell-based; conditions: Haemophilus influenzae

In the case of C=CC1(C)CC(OC(=O)CO[C@@H]2OC[C@@H](O)[C@H](O)[C@H]2O)C2(C)C(C)CCC3(CCC(=O)C32)C(C)C1O (stereo partly drawn) [A-40104 factor A, β,D-xylopyranosyl acetal derivative of pleuromutilin], the “minimal inhibitory concentration (MIC)” value (Mycoplasma synoviae) is reported as at most 0.78, the “minimal inhibitory concentration (MIC)” value (Mycoplasma hyopneumoniae) is reported as 0.195 and the “minimal inhibitory concentration (MIC)” value (Mycoplasma hyorhinis) is reported as 1.56. The “minimal inhibitory concentration (MIC)” value (Mycoplasma gallisepticum) was at most 0.78, the LD50 [1] was over 300 mg/kg and the MIC [2] was 0.7 mg/L (≈ 1.37 µM). It also gave an MIC (Peptococcus prevoti) of at most 0.5 mg/L, a zone of inhibition at 10 µg/disc (Streptococcus sp. 9960; 10 mcg/disc) of 0 mm and a zone of inhibition at 100 µg/disc (Streptococcus sp. 9960; 100 mcg/disc) of 8.7 mm. It also gave a zone of inhibition at 10 µg/disc ([3]; 10 mcg/disc) of 27.2 mm, a zone of inhibition at 100 µg/disc ([3]; 100 mcg/disc) of 31.2 mm and a zone of inhibition at 10 µg/disc ([4]; 10 mcg/disc) of 25.4 mm. For the same molecule, the zone of inhibition at 100 µg/disc ([4]; 100 mcg/disc) was 29.2 mm, the zone of inhibition at 10 µg/disc ([5]; 10 mcg/disc) was 29.2 mm and the zone of inhibition at 100 µg/disc ([5]; 100 mcg/disc) was 34 mm. For the same molecule, the zone of inhibition at 10 µg/disc (Diplococcus pneumoniae; 10 mcg/disc) was 14 mm, the zone of inhibition at 100 µg/disc (Diplococcus pneumoniae; 100 mcg/disc) was 20 mm and the zone of inhibition at 10 µg/disc (Streptococcus pyogenes [6]; 10 mcg/disc) was 21 mm. It also gave a zone of inhibition at 100 µg/disc (Streptococcus pyogenes [6]; 100 mcg/disc) of 27 mm, an MIC [7] of 70 mg/L (≈ 137 µM) and an ED50 [8] of 15.7 mg/kg. For the same molecule, the MIC [9] was 6.25 mg/L (≈ 12.2 µM), the MIC (Pasteurella hemolytica) was 25 mg/L (≈ 49 µM) and the MIC [10] was 4 mg/L (≈ 7.83 µM). For the same molecule, the MIC [11] was 2 mg/L (≈ 3.92 µM), the MIC (Streptococcus pyogenes [12]) was under 0.01 mg/L and the ED50 [13] was 21.5 mg/kg. The MIC [14] was 4 mg/L (≈ 7.83 µM), the MIC (Fusobacterium symbiosum) was 4 mg/L (≈ 7.83 µM) and the MIC [15] was at most 0.5 mg/L. It also gave an MIC [16] of 8 mg/L (≈ 15.7 µM), an ED50 [17] of 3.6 mg/kg and an MIC (Bacteroides corrodens) of 8 mg/L (≈ 15.7 µM). The MIC [18] was at most 0.5 mg/L, the solubility in alcohols (solubility; alcohols such as methanol and ethanol) was “soluble in alcohols such as methanol and ethanol” and the solubility in chloroform (solubility; chloroform) was “partially soluble in chloroform”. For the same molecule, the solubility in water (solubility; water) was “insoluble in water”, the “control of powdery mildew” value (powdery mildew; bean and barley plants, soil drench, 100 ppm) was “control of powdery mildew is obtained” and the “activity against powdery mildew” value (powdery mildew; foliar spray or soil drench) was “active against powdery mildew”. For the same molecule, the titratable groups (electrometric titration) was “no titratable groups are present”, the “in vivo antimicrobial activity” value [19] was “have shown in vivo antimicrobial activity” and the MIC [20] was 2 mg/L (≈ 3.92 µM).
